Measured values from the supplement of paper PMC6045584.
± gives the standard deviation of the averaged measurements.

Tests used:
MK2206 = compound: NC1(c2ccc(-c3nc4ccn5c(=O)[nH]nc5c4cc3-c3ccccc3)cc2)CCC1 [MK2206]; test: surviving fraction relative to DMSO-only wells; higher = less growth inhibition; conditions: exposure time: 5 days
Procedure, shortened: (§1)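 Surviving fraction is CellTiter-Glo luminescence divided by the median of wells given DMSO only. For this, log-phase tumour cell lines went into 384-well plates at 250–500 cells per well and, 24 hours later, into five days of continuous inhibitor exposure at 0.5, 1, 5, 10, 50, 100, 500 and 1000 nM. Lines were screened three times and retained only if replicate Pearson r >0.7 and median Z' >0.3.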

MK0752 = compound: O=C(O)CC[C@H]1CC[C@@](c2cc(F)ccc2F)(S(=O)(=O)c2ccc(Cl)cc2)CC1 [MK0752]; test: as above; conditions: exposure time: 5 days
Procedure, shortened: as §1

Test System	surviving fraction (MK2206; 0.5 nM)	surviving fraction (MK2206; 1 nM)	surviving fraction (MK2206; 5 nM)	surviving fraction (MK2206; 10 nM)	surviving fraction (MK2206; 50 nM)	surviving fraction (MK2206; 100 nM)	surviving fraction (MK2206; 500 nM)	surviving fraction (MK2206; 1000 nM)	surviving fraction (MK0752; 0.5 nM)	surviving fraction (MK0752; 1 nM)	surviving fraction (MK0752; 5 nM)	surviving fraction (MK0752; 10 nM)	surviving fraction (MK0752; 50 nM)	surviving fraction (MK0752; 100 nM)	surviving fraction (MK0752; 500 nM)	surviving fraction (MK0752; 1000 nM)
C33A CERVIX	0.919 ± 0.03	0.917 ± 0.026	1.05 ± 0.085	0.929 ± 0.029	1.01 ± 0.063	0.925 ± 0.058	0.812 ± 0.084	0.817 ± 0.042	1.12 ± 0.13	1.11 ± 0.08	1.06 ± 0.14	1.19 ± 0.083	1.09 ± 0.066	1.19 ± 0.18	1.08 ± 0.16	1.13 ± 0.1
CAL72 BONE	1.1 ± 0.024	1.1 ± 0.11	1.12 ± 0.06	1.11 ± 0.1	1.12 ± 0.019	1.16 ± 0.096	1.06 ± 0.087	1.05 ± 0.053	1.04 ± 0.025	1.1 ± 0.043	1.084 ± 0.0046	1.09 ± 0.021	1.11 ± 0.018	1.14 ± 0.034	1.102 ± 0.011	1.12 ± 0.04
G292 BONE	0.96 ± 0.031	1.01 ± 0.06	0.997 ± 0.033	0.992 ± 0.031	0.893 ± 0.041	0.833 ± 0.018	0.748 ± 0.054	0.724 ± 0.026	0.974 ± 0.015	1.03 ± 0.053	1.05 ± 0.033	1.05 ± 0.013	1.01 ± 0.018	0.989 ± 0.019	0.914 ± 0.037	0.86 ± 0.037
HCC1395 BREAST	1.08 ± 0.18	0.985 ± 0.056	1.09 ± 0.16	1.04 ± 0.19	0.934 ± 0.057	1.1 ± 0.13	0.89 ± 0.082	0.817 ± 0.15	1.09 ± 0.017	0.987 ± 0.16	1.08 ± 0.036	1.1 ± 0.099	1.06 ± 0.011	1.06 ± 0.15	0.975 ± 0.028	0.925 ± 0.12
HUO3N1 BONE	1.03 ± 0.072	1.02 ± 0.045	1.02 ± 0.052	1.02 ± 0.051	0.897 ± 0.044	0.825 ± 0.036	0.67 ± 0.023	0.64 ± 0.014	1.02 ± 0.023	1.03 ± 0.021	1.051 ± 0.0083	1.08 ± 0.042	1.07 ± 0.042	1.08 ± 0.052	1.01 ± 0.02	0.9563 ± 0.0042
LNCAP PROSTATE	0.974 ± 0.07	0.936 ± 0.075	0.87 ± 0.015	0.839 ± 0.092	0.529 ± 0.022	0.398 ± 0.0075	0.0787 ± 0.0097	0.071 ± 0.0017	0.936 ± 0.14	0.927 ± 0.12	1.03 ± 0.26	0.887 ± 0.09	1.01 ± 0.098	1.02 ± 0.074	1.04 ± 0.21	1.01 ± 0.12
SCC003 HEADNECK	1.09 ± 0.063	1.08 ± 0.049	1.07 ± 0.053	1.07 ± 0.14	1.03 ± 0.021	1.09 ± 0.12	0.884 ± 0.05	0.717 ± 0.068	1.19 ± 0.02	1.12 ± 0.15	1.14 ± 0.045	1.13 ± 0.055	1.19 ± 0.12	1.24 ± 0.11	1.19 ± 0.13	1.2 ± 0.039
